# Assays:
# [1] = molecular target: Tyrosine-protein kinase ABL1 [T315I] (Homo sapiens, UniProt P00519, T315I); experiment: In Vitro Kinase Assay
# [2] = molecular target: Proto-oncogene tyrosine-protein kinase Src (Homo sapiens, UniProt P12931); experiment: In vitro kinase assay using Abl, Abl T315I or Src kinase.
# [3] = molecular target: Tyrosine-protein kinase ABL1 (Homo sapiens, UniProt P00519); experiment: In Vitro Kinase Assay
# Proto-oncogene tyrosine-protein kinase Src, sequence (P12931 whole entry, looked up): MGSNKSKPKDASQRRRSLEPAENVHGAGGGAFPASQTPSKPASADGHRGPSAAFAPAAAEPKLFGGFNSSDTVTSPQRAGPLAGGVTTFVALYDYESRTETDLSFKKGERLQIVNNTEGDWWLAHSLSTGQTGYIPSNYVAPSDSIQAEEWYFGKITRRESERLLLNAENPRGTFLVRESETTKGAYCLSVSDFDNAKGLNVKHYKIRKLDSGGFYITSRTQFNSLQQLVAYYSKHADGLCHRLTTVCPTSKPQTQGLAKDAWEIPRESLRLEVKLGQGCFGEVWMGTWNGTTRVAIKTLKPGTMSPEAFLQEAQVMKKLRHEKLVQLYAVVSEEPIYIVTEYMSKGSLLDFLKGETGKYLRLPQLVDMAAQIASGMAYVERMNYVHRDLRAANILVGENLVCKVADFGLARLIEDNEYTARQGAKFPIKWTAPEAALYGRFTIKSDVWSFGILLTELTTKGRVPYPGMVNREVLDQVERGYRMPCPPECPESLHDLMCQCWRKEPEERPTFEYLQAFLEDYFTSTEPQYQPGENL
IC50 [1] [nM],IC50 [2] [nM],IC50 [3] [nM],Compound
8900,9.1,,Cc1cccc(C)c1/C=C/n1cnc2c(Nc3ccc(P(C)(C)=O)cc3)ncnc21 [AP24149]
> 10000,< 0.5,< 0.5,Cc1ccc2[nH]ncc2c1/C=C/n1cnc2c(Nc3ccc(P(C)(C)=O)cc3)ncnc21
